Data from patent publication US20020016370A1 (priority 1998, published 2002).
Where two headings read alike, the source gives them in different places.

Tests used:
TS patients = conditions: Tourette's syndrome; cited from earlier work
human α3β2 receptors = target: T1, human α3β2 receptors (Homo sapiens, UniProt P17787+P32297); test: Two-electrode voltage clamp, receptors expressed in Xenopus oocytes; type: cell-based; conditions: β2-containing receptors
T1 construct: expressed in transfected cells; host or cells: Xenopus laevis oocytes injected with cRNA

[1] = target: hNET (norepinephrine transporter) (Homo sapiens, UniProt P23975); test: [125]RTI-55 binding, HEK293 cell membranes; conditions: HEK-hNET membranes
[2] = test system: Sprague-Dawley derived rats; test: Prevention of sensitized locomotor stimulant response to nicotine; type: in vivo, rat; conditions: pretreatment 7 days before nicotine; test on day 9
Male Sprague-Dawley rats [3] = test: Mecamylamine blockade of nicotine-induced seizures; type: in vivo, rat
[4] = target: hSERT (serotonin transporter) (Homo sapiens, UniProt P31645); test: [125]RTI-55 binding, HEK293 cell membranes; conditions: HEK-hSERT membranes
[5] = target: T2, α1β1δε mouse muscle receptors (Mus musculus, UniProt P02716+P04756+P09690+P20782); test: Selectivity test on muscle receptors in oocytes; type: cell-based
Description: For electrophysiology, oocyte recordings were made with an oocyte amplifier (e.g., Warner Instruments, Hamden, Conn., No. OC-725C) and recording chamber. […] A Mariotte flask filled with Ringer's solution was used to maintain a constant hydrostatic pressure for drug delivery and washes. Drugs were diluted in perfusion solution and loaded into a 2 ml loop at the terminus of the perfusion line. A bypass of the drug-loading loop allowed bath solution to flow continuously while the drug loop was loaded. The drug application was synchronized with data acquisition by using a 2-way electronic valve. […] Voltage electrodes were filled with 3M KCl and have resistances of 1-3MΩ. Oocytes with resting membrane potentials more positive than -30 mV were not used. […] All drug applications were separated by at least a 5 min wash period, longer if there is persisting drug effect. At the start of recording, all oocytes received two initial control applications of ACh. The second application of control ACh minimized the effects of rundown that occasionally occur after an initial ACh response. The second application of ACh also was used to normalize for the level of channel expression in each oocyte. To determine residual inhibitory effects, application of ACh with inhibitor or inhibitor alone was followed by another application of ACh alone and compared to the pre-application control ACh response. […]

human α7 receptors = target: T3, human α7 receptors (Homo sapiens, UniProt P36544); test: Two-electrode voltage clamp, receptors expressed in Xenopus oocytes; type: cell-based
T3 construct: expressed in transfected cells; host or cells: Xenopus laevis oocytes injected with cRNA

human α3β4 receptors = target: T4, human α3β4 receptors (Homo sapiens, UniProt P30926+P32297); test: as above; type: cell-based
T4 construct: expressed in transfected cells; host or cells: Xenopus laevis oocytes injected with cRNA

male Swiss-Webster mice [6] = test: Locomotor depression test; type: in vivo, mouse
[7] = test system: vagotomized, pithed and artificially respired rats; test: Pithed rat: cardiovascular responses to sympathetic nerve stimulation; type: in vivo; conditions: for increases in heart rate (δ HR): 2.2 Hz, highest dose, versus saline; for stimulation-induced increases in MAP: stimulation at 0.8 and 2.2 Hz, i.v. bolus
[8] = target: hDAT (dopamine transporter) (Homo sapiens, UniProt Q01959); test: [125]RTI-55 binding, HEK293 cell membranes; conditions: HEK-hDAT membranes
[9] = test system: vagotomized, pithed and artificially respired rats; test: Pithed rat: plasma catecholamine responses to sympathetic nerve stimulation; type: in vivo; conditions: for change of plasma DA levels on sympathetic stimulation: from baseline
human α4β2 receptors = target: T5, human α4β2 receptors (Homo sapiens, UniProt P17787+P43681); test: Two-electrode voltage clamp, receptors expressed in Xenopus oocytes; type: cell-based
T5 construct: expressed in transfected cells; host or cells: Xenopus laevis oocytes injected with cRNA

male Swiss-Webster mice [10] = test: Cocaine interaction study (locomotor activity); type: in vivo, mouse; conditions: 10 mg/kg ip plus cocaine 20 mg/kg, at 30 minutes
rats = conditions: mecamylamine 0.1-1 mg/day, ip; cited from earlier work
[11] = target: T6, NMDA receptor subunits NR1 and NR2b (Homo sapiens, UniProt Q05586+Q13224); test: Oocytes coexpressing NMDA receptor subunits; type: cell-based; conditions: 100 μM
T6 construct: expressed in transfected cells; host or cells: Xenopus oocytes
Text: NR1 is ubiquitous in the brain and produces robust functional responses when coexpressed with the NR2b subunit and activated by glutamate and the coagonist glycine. NR2b in vivo is selectively present in the forebrain with high levels of expression in the cerebral cortex and hippocampus, as well as the septum, caudate putamen and olfactory bulb, making the combination of NR2b and NR1 relevant for both cognitive and motor functions in the CNS.

Male Sprague-Dawley rats [12] = test: Effects of mecamylamine alone at high dose (seizures, spontaneous locomotor activity); type: in vivo, rat; conditions: 10 mg/kg s.c.
nicotine receptors = test: Oocyte recovery time course and agonist tests, receptor subtype not specified; type: cell-based
[13] = target: T2, α1β1δε mouse muscle receptors; conditions: stated as a finding in the discussion; cited from earlier work
mice = conditions: cited from earlier work

T2 sequence (P04756 21-457): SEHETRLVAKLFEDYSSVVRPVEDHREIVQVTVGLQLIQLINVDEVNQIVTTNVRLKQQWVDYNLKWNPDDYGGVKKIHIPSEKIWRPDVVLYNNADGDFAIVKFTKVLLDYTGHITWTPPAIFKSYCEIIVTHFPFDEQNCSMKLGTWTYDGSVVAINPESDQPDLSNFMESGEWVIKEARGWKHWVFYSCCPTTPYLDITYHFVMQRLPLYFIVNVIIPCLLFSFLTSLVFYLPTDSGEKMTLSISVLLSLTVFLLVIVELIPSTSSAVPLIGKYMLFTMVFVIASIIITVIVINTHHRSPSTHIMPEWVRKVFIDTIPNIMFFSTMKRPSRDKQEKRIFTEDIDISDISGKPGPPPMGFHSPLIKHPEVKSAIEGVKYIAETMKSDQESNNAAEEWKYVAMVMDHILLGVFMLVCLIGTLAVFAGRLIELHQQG
T2 sequence (P09690 24-501): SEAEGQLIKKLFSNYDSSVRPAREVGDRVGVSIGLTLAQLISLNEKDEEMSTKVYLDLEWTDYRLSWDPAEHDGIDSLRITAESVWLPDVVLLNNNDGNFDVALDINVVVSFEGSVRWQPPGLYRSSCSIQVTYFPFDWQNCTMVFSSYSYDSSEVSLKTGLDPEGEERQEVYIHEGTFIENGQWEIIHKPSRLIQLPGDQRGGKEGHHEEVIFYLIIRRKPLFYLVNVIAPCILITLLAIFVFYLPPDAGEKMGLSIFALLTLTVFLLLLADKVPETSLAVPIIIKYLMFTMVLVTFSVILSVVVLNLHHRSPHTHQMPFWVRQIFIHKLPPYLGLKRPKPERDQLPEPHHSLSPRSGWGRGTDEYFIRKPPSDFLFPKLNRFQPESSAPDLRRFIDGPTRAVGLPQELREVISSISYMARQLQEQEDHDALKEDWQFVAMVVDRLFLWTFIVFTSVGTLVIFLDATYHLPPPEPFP
T2 sequence (P02716 25-520): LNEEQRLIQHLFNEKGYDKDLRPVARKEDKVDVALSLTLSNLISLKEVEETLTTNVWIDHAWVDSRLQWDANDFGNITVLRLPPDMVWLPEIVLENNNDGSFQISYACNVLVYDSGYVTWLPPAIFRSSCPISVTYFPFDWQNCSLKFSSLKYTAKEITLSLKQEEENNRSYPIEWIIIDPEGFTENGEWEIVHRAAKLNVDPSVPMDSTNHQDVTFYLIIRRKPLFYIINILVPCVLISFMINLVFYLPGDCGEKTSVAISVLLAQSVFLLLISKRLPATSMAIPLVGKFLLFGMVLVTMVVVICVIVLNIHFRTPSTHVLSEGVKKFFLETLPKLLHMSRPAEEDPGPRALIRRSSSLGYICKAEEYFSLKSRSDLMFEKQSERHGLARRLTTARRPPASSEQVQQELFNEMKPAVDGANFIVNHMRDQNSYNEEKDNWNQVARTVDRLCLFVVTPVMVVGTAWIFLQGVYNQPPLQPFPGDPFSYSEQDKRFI
T2 sequence (P20782 21-493): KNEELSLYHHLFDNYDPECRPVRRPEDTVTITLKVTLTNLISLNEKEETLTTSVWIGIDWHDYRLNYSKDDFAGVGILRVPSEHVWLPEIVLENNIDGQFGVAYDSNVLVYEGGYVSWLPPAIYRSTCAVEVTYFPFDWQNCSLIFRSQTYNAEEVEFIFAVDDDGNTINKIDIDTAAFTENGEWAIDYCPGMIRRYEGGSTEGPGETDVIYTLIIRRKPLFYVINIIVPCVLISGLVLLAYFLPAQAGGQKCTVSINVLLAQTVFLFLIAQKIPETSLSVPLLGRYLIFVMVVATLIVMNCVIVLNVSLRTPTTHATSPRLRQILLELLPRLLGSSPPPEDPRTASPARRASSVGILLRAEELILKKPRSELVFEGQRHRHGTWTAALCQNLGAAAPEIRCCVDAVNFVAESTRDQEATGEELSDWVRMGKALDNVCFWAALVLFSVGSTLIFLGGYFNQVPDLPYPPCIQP
T3 sequence (P36544 23-502): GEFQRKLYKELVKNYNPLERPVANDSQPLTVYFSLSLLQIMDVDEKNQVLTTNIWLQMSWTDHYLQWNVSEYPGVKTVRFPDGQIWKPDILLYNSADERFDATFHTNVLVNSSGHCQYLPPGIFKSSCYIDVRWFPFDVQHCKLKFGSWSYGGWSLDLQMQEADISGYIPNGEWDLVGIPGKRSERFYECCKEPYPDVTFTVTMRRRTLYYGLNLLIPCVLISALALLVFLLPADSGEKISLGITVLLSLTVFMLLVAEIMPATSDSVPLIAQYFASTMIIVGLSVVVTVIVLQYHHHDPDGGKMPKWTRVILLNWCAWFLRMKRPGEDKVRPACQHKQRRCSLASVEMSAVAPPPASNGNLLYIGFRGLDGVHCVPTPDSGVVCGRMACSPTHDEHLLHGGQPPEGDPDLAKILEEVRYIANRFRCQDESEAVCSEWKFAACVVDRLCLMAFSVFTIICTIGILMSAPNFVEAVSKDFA
T6 sequence (Q13224 27-1484, other chains not shown): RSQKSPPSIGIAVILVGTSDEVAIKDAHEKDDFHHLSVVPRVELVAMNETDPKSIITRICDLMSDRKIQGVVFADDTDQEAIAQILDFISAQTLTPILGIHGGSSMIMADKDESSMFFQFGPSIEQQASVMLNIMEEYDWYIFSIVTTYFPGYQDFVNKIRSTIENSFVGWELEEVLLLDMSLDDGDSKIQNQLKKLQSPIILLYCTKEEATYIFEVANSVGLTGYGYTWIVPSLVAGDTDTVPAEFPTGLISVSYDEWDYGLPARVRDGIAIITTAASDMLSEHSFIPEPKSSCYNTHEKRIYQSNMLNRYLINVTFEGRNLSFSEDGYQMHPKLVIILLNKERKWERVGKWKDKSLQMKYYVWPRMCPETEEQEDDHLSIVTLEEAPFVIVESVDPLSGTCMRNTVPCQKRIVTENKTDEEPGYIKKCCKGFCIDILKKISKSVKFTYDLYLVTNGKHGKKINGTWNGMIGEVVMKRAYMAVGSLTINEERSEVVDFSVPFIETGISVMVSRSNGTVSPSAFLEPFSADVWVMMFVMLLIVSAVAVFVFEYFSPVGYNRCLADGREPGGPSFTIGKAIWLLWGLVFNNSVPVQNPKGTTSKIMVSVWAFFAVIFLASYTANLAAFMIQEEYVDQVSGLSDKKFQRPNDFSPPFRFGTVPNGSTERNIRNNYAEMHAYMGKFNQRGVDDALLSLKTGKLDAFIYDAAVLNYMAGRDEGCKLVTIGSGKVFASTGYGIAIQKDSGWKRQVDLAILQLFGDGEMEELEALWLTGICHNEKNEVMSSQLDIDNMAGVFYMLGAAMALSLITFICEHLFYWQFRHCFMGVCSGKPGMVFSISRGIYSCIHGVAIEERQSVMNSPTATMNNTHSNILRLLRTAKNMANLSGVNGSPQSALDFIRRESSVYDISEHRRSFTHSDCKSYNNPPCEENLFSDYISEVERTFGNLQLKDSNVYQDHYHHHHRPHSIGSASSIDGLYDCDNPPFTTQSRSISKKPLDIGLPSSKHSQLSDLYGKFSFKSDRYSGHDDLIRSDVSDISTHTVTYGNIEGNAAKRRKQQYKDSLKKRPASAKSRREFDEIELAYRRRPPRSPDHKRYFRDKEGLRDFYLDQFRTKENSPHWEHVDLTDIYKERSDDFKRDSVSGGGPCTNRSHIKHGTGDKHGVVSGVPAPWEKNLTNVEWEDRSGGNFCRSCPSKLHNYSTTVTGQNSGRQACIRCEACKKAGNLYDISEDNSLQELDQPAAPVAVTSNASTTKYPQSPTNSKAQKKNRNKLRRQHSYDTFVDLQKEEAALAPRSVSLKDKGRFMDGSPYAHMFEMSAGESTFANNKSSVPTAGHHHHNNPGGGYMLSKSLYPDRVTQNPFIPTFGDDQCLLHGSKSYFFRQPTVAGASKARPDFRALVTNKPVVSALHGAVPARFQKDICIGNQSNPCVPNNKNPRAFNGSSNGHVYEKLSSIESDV
T5 sequence (P43681 29-627 limits assumed): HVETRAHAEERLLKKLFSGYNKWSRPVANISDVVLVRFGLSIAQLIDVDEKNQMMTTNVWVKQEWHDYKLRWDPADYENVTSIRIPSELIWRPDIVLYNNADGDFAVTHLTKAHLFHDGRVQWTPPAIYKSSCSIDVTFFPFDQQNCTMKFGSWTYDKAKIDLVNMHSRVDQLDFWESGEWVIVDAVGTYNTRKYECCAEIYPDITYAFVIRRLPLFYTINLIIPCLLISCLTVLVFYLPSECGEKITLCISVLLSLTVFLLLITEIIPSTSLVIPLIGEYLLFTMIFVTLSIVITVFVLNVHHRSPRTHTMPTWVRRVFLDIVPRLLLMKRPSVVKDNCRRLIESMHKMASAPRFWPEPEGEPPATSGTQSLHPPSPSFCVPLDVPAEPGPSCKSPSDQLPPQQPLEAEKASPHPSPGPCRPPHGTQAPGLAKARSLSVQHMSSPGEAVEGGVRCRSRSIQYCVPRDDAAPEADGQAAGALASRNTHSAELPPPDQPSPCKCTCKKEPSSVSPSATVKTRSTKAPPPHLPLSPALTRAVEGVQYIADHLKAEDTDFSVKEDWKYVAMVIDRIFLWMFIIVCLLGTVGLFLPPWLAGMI
T5 sequence (P17787 26-502): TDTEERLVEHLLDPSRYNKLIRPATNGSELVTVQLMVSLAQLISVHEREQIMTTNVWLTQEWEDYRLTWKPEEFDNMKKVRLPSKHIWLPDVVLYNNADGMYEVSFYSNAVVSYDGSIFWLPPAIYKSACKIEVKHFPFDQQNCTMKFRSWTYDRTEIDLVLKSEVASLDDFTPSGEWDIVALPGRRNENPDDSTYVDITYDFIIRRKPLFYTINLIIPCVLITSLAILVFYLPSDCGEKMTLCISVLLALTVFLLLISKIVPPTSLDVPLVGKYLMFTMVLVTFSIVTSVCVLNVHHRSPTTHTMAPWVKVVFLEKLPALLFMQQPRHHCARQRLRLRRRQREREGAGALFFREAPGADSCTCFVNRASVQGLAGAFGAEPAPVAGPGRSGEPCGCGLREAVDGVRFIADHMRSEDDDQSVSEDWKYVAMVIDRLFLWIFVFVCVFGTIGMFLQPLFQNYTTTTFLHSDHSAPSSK

## Clc1cccc(Cl)c1N=C1NCCN1 [clonidine]
TS patients
  success rate for motor and vocal tics: 40%

## CN[C@]1(C)[C@H]2CC[C@H](C2)C1(C)C [exo-R-mecamylamine]
Human α3β2 receptors
  residual inhibition, compared across receptors: greatest
[1]
  affinity compared to cocaine: lower than the affinity of cocaine
[2]
  effectiveness compared between isomers, particularly center distance and vertical activity: generally more effective at lower doses
Male Sprague-Dawley rats [3]; 0.1 mg/kg s.c.
  duration and severity of seizure versus saline (FIG. 6C): did not differ from their saline comparison group
[4]
  affinity compared to cocaine: lower than the affinity of cocaine
[5]
  effect on muscle receptors: very little effect
  inhibition of muscle receptors after a 5-min wash: fully reversed
Human α7 receptors
  potency of inhibition, comparing the IC50 values across receptors: least potent
  residual inhibition, compared across receptors: least
Human α3β4 receptors
  subsequent control response to ACh 5 min after exposure (residual inhibition): marked decrease
Human α3β4 receptors; no further recovery afterwards
  fast phase of recovery, average duration: 12 min
Male Swiss-Webster mice [6]; 10 mg/kg ip, last 30 minutes of testing
  stimulant effects: evident
Male Swiss-Webster mice [6]; ip, 20 min before testing, maximal depression is 0 counts in 30 minutes
  dose producing one half of the maximal depressant activity: 9.3 mg/kg
[7]
  increases in heart rate (δ HR): significantly lowered the increases in heart rate
  stimulation-induced increases in MAP: completely abolished
[8]
  affinity compared to cocaine: lower than the affinity of cocaine
[9]; 2.2 Hz
  stimulation-induced increases in plasma NE levels versus saline: significantly less
  change of plasma DA levels on sympathetic stimulation: significant increases in plasma DA levels
Human α4β2 receptors; 5 μM, −40 mV or 90 mV
  voltage dependence of inhibition / off rate: significant voltage effects
Human α4β2 receptors; β2-containing receptors
  residual inhibition, compared across receptors: greatest
Male Swiss-Webster mice [10]
  locomotion versus cocaine alone: significantly lower

## O=C(CCCN1CCC(O)(c2ccc(Cl)cc2)CC1)c1ccc(F)cc1 [haloperidol]
TS patients
  cases in which effective: about 70%

## C[N+](C)(C)CCCCCC[N+](C)(C)C [hexamethonium]
rats
  block of nicotine-induced locomotor hyperactivity and tail tremor: not

## CN[C@@]1(C)[C@@H]2CC[C@@H](C2)C1(C)C [exo-S-mecamylamine]
[11]
  inhibition of response to 10 μM glutamate+10 μM glycine: transient inhibition
  reversibility after a 5-min wash: reversible
Male Sprague-Dawley rats [3]; 0.1 mg/kg s.c.
  duration and severity of seizure versus saline (FIG. 6C): significantly different from their saline comparison groups
  seizure latency versus saline comparison groups: significantly longer seizure latency
Male Sprague-Dawley rats [3]; lowest dose 0.1 mg/kg
  number of rats with nicotine-seizures compared to exo-R-mecamylamine: fewer rats had nicotine-seizures
Male Sprague-Dawley rats [12]
  locomotor depressant effects compared to exo-R-mecamylamine: significantly less locomotor depressant effects
Nicotine receptors; co-application of 10 μM and ACh at the control concentration
  initial inhibition: greater than 50%
Nicotine receptors; recovery time course
  off-loading from some receptors compared to exo-R-mecamylamine: more slowly
[7]
  increases in heart rate (δ HR): significantly lowered the increases in heart rate
  stimulation-induced increases in MAP: completely abolished
[13]
  inhibitory effect at nAChR muscle receptors compared to exo-R-mecamylamine: less inhibitory effect
[9]; 2.2 Hz
  stimulation-induced increases in plasma NE levels versus saline: significantly decreased stimulation-evoked plasma NE increases
  stimulation-induced plasma EPI responses: significant decrease
  change of plasma DA levels on sympathetic stimulation: not
[9]; among the three forms
  overall effectiveness on plasma CA and sympathetically-mediated cardiovascular responses: the most effective in reducing plasma CA

## CO[C@H]1CC=C2CCN3CCC4=C(CC(=O)OC4)[C@]23C1 [dihydro-beta-erythroidine]
mice; systemic administration
  effect against psychostimulant-induced stereotypy in naive animals: ineffective

## CN1[C@@H]2CC[C@H]1C[C@@H](OC(=O)C(CO)c1ccccc1)C2 (some centres unmarked) [atropine]
mice; mouse, in vivo
  effect against psychostimulant-induced stereotypy in naive animals: ineffective
